Laboratory results taken from US11819492B2, “Natural product derivatives for inhibiting cellular necroptosis, ferroptosis and oxytosis” (Institut National de la Sante et de la Recherche Medicale …, priority 2016, dated 2023).

Legend:
RIPK1 = molecular target: T1, RIPK1 (Homo sapiens, UniProt Q13546); experiment: KINOMEscan Max competition binding assay, RIPK1; settings: RIPK1, FIG. 8
T1 construct: DNA tag (qPCR read-out); purchased DiscoveRx Corporation, Fremont, USA (assay service)
T1 sequence (Q13546 1-671): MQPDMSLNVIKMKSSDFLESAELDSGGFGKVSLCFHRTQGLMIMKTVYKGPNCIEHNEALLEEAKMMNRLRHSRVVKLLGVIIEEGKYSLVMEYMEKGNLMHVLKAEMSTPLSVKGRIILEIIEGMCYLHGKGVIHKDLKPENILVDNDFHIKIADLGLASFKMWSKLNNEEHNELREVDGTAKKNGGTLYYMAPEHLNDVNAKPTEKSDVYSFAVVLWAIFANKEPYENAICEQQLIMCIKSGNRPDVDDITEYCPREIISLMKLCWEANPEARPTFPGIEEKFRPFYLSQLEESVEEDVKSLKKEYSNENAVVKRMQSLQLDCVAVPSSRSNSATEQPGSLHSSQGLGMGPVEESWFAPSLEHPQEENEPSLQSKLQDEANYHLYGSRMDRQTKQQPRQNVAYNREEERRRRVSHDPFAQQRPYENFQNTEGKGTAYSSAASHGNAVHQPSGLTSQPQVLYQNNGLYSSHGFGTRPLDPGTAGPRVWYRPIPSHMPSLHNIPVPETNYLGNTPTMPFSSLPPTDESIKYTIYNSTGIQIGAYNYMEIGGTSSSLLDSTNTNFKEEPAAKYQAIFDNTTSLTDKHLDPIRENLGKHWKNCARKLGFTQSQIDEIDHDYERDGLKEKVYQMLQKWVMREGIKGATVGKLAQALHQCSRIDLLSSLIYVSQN
Method: This experimental approach quantitatively measures the ability of a compound to compete with an immobilized, active-site directed ligand. […] The ability of compound 1 to compete with the immobilized ligand is measured via quantitative PCR of the DNA tag. The codes reported on the FIG. 8 indicate the subclasses of protein kinases: CMGC for CDKs, MAP kinases, GSK and CDK-like kinases; AGC for Protein kinase A, G, and C families (PKA, PKC, PKG); CAMK for Ca2+/calmodulin-dependent protein kinases; CK1, Cell Kinases 1 (originally known as Casein Kinase 1); STE, STE Kinases (Homologs of yeast STErile kinases); TKL, Tyrosine Kinases-Like; TK, Tyrosine Kinases. Each kinase tested in the assay panel is marked with a circle. The hit kinase reported, RIPK1, is marked with a black circle.

[1] = test system: Murine hippocampal neuronal cell line HT22; experiment: Erastin-induced ferroptosis in HT22 cells, MTS viability assay; assay type: cell-based; settings: 1 μM erastin, 24 hours, FIG. 14
Method: Murine hippocampal neuronal cell line HT22 was treated with 10 mM of (L)-glutamate (oxytosis initiator) or 1 μM erastin (ferroptosis initiator).
Cells were then incubated at 37° C., 5% CO2 for 24 hours before performing MTS viability assay. Cell viability was monitored using CellTiter 96® AQueous Non-Radioactive Cell Proliferation Assay (Promega, Fitchburg, WI, USA), based on the water-soluble tetrazolium compound MTS (3-[4,5-dimethylthiazol-2-yl]-5-[3-carboxymethoxy-phenyl]-2-[4-sulfophenyl]-2H-tetrazolium, inner salt) according to the manufacturers instructions.

COc1cc(O)c2c(c1)OC(O)(c1ccc(OCc3ccccc3)cc1)CC2=O (centres unmarked) [compound 1]
initial amount of kinase still on the affinity matrix after competition (RIPK1): 0.15%
concentration that protects cells from death induced by erastin [1]: > 25 µM
